Experimental data taken from US20240018161A1, “MODULATORS OF CYSTIC FIBROSIS TRANSMEMBRANE CONDUCTANCE REGULATOR” (VERTEX PHARMACEUTICALS INCORPORATED, priority 2020, published 2024).
Like-named read-outs stand apart in the source and are kept apart here.

Molecular target: CFTR-mediated chloride transport in human intestinal epithelial enteroid cells (Homo sapiens, UniProt P13569)
Assay: Membrane potential dye, Enteroid Assay A
Type: cell-based
Details: for EC50: read-out: Ent. A EC50
Method in brief: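 Membrane potential dye (20 μM methyl oxonol, with 30 μM CaCCinh-A01 and 30 μM Chicago Sky Blue) loaded 25 min at room temperature into ROCK-inhibitor-seeded human enteroid cells. Chloride-free stimulation buffer triggered transport, followed by 15 min fluorescence. % Activity relative to 3 μM/3 μM/300 nM triple-combination control.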

[1] = enteroid cells incubated with test compound 18-24 hours, acute 10 μM forskolin and 300 nM N-[2,4-bis(1,1-dimethylethyl)-5-hydroxyphenyl]-1,4-dihydro-4-oxoquinoline-3-carboxamide
[2] = percentage of chloride transport of triple combination control (3 μM N-[(6-amino-2-pyridyl)sulfonyl]-6-(3-fluoro-5-isobutoxy-phenyl)-2-[(4S)-2,2,4-trimethylpyrrolidin-1-yl]pyridine-3-carboxamide based)

Chain of CFTR-mediated chloride transport in human intestinal epithelial enteroid cells (P13569 with tags, fused parts or gaps DEL508-508): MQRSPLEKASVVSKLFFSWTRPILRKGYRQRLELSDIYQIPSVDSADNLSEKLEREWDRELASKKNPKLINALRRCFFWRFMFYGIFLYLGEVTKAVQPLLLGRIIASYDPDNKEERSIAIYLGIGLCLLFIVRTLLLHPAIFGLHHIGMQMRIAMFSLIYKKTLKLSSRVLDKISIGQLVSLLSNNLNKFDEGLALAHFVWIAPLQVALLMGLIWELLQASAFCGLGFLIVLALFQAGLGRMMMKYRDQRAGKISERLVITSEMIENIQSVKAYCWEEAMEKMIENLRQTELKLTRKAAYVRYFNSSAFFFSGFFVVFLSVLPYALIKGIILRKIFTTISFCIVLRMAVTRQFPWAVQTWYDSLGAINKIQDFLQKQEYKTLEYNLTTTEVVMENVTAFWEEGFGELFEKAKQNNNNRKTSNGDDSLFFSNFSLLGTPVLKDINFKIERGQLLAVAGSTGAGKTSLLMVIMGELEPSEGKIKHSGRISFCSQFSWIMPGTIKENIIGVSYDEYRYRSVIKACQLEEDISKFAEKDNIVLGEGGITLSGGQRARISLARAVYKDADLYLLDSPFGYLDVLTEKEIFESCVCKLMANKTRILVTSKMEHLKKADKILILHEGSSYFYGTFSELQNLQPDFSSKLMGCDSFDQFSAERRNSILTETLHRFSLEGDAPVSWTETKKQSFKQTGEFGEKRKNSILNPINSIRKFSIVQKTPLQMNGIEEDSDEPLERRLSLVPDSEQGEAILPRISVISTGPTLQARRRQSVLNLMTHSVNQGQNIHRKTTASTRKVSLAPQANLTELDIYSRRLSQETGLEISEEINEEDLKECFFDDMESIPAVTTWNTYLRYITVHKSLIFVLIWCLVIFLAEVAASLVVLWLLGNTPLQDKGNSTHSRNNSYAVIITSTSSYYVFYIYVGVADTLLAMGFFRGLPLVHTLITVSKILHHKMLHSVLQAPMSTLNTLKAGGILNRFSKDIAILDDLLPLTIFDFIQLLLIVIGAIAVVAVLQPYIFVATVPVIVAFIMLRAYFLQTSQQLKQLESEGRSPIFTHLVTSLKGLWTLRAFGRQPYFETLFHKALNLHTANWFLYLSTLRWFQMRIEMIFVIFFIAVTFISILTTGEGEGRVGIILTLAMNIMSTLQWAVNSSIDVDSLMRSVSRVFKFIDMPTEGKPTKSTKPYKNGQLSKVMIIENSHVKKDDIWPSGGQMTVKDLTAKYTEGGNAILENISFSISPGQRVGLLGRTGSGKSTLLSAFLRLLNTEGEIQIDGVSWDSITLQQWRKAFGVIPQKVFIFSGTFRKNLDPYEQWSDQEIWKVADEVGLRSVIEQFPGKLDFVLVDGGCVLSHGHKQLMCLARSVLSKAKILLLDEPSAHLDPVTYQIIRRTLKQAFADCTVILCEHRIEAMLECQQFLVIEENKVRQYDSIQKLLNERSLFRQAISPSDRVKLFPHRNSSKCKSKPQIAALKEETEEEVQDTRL

SMILES | EC50 [1] [µM] | Ent. A Max Activity (%) [2] | Ent. A Max Activity (%) (Enteroid Assay A) | EC50 (Enteroid Assay A) [µM]
Cc1cccc(C)c1-c1cc2nc(n1)NS(=O)(=O)c1cccc(c1)C(=O)N1CCN(CCC3(C(F)(F)F)CC3)C(CO2)C1 (stereo not shown) [Compound 314] | < 1 | +++ (+++ is >60%) |  | 
Cc1cccc(C)c1-c1cc2nc(n1)NS(=O)(=O)c1cccc(c1)C(=O)N1CCN(C(=O)OC(C)(C)C)C[C@@H]1CO2 [Compound 315] | < 1 | ++ (++ is 30-60%) |  | 
Cc1cccc(C)c1-c1cc2nc(n1)NS(=O)(=O)c1cccc(c1)C(=O)N1CCN(C)C(CO2)C1 (stereo not shown) [Compound 316] |  | + (+ is <300%) |  | 
Cc1cccc(C)c1-c1cc2nc(n1)NS(=O)(=O)c1cccc(c1)C(=O)N1CCC(c3ccccc3)C(C1)O2 (stereo not shown) [Compound 317] | < 1 | +++ (+++ is >60%) |  | 
Cc1cccc(C)c1-c1cc2nc(n1)NS(=O)(=O)c1cccc(c1)C(=O)N1Cc3ccccc3[C@@H](C1)O2 [Compound 318] |  | + (+ is <300%) |  | 
Cc1cccc(C)c1-c1cc2nc(n1)NS(=O)(=O)c1cccc(c1)C(=O)N1CC(NC(=O)OC(C)(C)C)CC(C1)O2 (stereo not shown) [Compound 320] | 1 to 3 | ++ (++ is 30-60%) |  | 
Cc1cccc(C)c1-c1cc2nc(n1)NS(=O)(=O)c1cccc(c1)C(=O)N1CC(CC(C(=O)NCCC(C)(C)C)C1)O2 (stereo not shown) [Compound 321] | < 1 | ++ (++ is 30-60%) |  | 
Cc1cccc(C)c1-c1cc2nc(n1)NS(=O)(=O)c1cccc(c1)C(=O)N1CCN(C(=O)OC(C)(C)C)C(CO2)C1 (stereo not shown) [Compound 322] | < 1 | ++ (++ is 30-60%) |  | 
Cc1cccc(C)c1-c1cc2nc(n1)NS(=O)(=O)c1cccc(c1)C(=O)N1CC(O2)C(N2CCOCC2)C1 (stereo not shown) [Compound 323] | 3 to 30 | ++ (++ is 30-60%) |  | 
Cc1cccc(C)c1-c1cc2nc(n1)NS(=O)(=O)c1cccc(c1)C(=O)N1CCN(C)CC1CO2 (stereo not shown) [Compound 324] | 3 to 30 | ++ (++ is 30-60%) |  | 
Cc1cccc(C)c1-c1cc2nc(n1)NS(=O)(=O)c1cccc(c1)C(=O)N1Cc3ccccc3C(C1)O2 (stereo not shown) [Compound 325] | < 1 | +++ (+++ is >60%) |  | 
Cc1cccc(C)c1-c1cc2nc(n1)NS(=O)(=O)c1cccc(c1)C(=O)N1CCCC(C1)O2 (stereo not shown) [Compound 326] | 3 to 30 | + (+ is <300%) |  | 
Cc1cccc(C)c1-c1cc2nc(n1)NS(=O)(=O)c1cccc(c1)NC(=O)[C@@H]1CNCCN1c1cccc(c1)O2 [Compound 334] | 1 to 3 | +++ (+++ is >60%) |  | 
Cc1cccc(C)c1-c1cc2nc(n1)NS(=O)(=O)c1cccc(c1)C(=O)N1CCC[C@@H](C1)O2 [Compound 335] |  | + (+ is <300%) |  | 
Cc1cccc(C)c1-c1cc2nc(n1)NS(=O)(=O)c1cccc(c1)C(=O)N1CCC[C@H](C1)O2 [Compound 336] |  | + (+ is <300%) |  | 
CC(C)CCc1ccccc1-c1cc2nc(n1)NS(=O)(=O)c1cccc(c1)C(=O)N1Cc3ccccc3C(C1)O2 (stereo not shown) [Compound 337] | < 1 | ++ (++ is 30-60%) |  | 
CC(C)Oc1cccc(-c2cc3nc(n2)NS(=O)(=O)c2cccc(c2)C(=O)N2Cc4ccccc4C(C2)O3)c1 (stereo not shown) [Compound 338] |  | + (+ is <300%) |  | 
Cc1cccc(C)c1-c1cc2nc(n1)NS(=O)(=O)c1cc(n(C)n1)C(=O)N1Cc3ccccc3[C@H](C1)O2 [Compound 340] | 3 to 30 | + (+ is <300%) |  | 
Cc1cccc(C)c1-c1cc2nc(n1)NS(=O)(=O)c1cc(n(C)n1)C(=O)N1Cc3ccccc3[C@H](C1)O2 [Compound 341] | 3 to 30 | ++ (++ is 30-60%) |  | 
Cc1cccc(C)c1-c1cc2nc(n1)NS(=O)(=O)c1cc(ccn1)C(=O)N1Cc3ccccc3C(C1)O2 (stereo not shown) [Compound 343] | 1 to 3 | ++ (++ is 30-60%) |  | 
Cc1cccc(C)c1-c1cc2nc(n1)NS(=O)(=O)c1cccc(c1)CN1CC(COCC(C)(C)C)CC(C1)O2 (stereo not shown) [Compound 344] | < 1 | ++ (++ is 30-60%) |  | 
Cc1cccc(C)c1-c1cc2nc(n1)NS(=O)(=O)c1cccc(c1)CCC(=O)N1Cc3ccccc3C(C1)O2 (stereo not shown) [Compound 345] |  | + (+ is <300%) |  | 

SMILES | EC50 [1] [µM] | Ent. A Max Activity (%) [2] | Ent. A Max Activity (%) (Enteroid Assay A) | EC50 (Enteroid Assay A) [µM]
Cc1cccc(C)c1-c1cc2nc(n1)NS(=O)(=O)c1cnn(c1)CCC(=O)N1Cc3ccccc3C(C1)O2 (stereo not shown) [Compound 346] |  | + (+ is <300%) |  | 
Cc1cccc(C)c1-c1cc2nc(n1)NS(=O)(=O)c1cnn(c1)CC(=O)N1Cc3ccccc3C(C1)O2 (stereo not shown) [Compound 347] |  | + (+ is <300%) |  | 
Cc1cccc(C)c1-c1cc2nc(n1)NS(=O)(=O)c1cc(n(C)c1)CC(=O)N1Cc3ccccc3C(C1)O2 (stereo not shown) [Compound 348] | 1 to 3 | ++ (++ is 30-60%) |  | 
Cc1cccc(C)c1-c1cc2nc(n1)NS(=O)(=O)c1cccc(c1)CCC(=O)N1CCC(CC1)O2 [Compound 352] |  | + (+ is <300%) |  | 
Cc1cccc(C)c1-c1cc2nc(n1)NS(=O)(=O)c1cccc(c1)CCC(=O)N1CCCC(C1)O2 (stereo not shown) [Compound 353] |  | + (+ is <300%) |  | 
Cc1cccc(C)c1-c1cc2nc(n1)NS(=O)(=O)c1cnn(c1)CC(=O)N1CCCC(C1)O2 (stereo not shown) [Compound 354] |  | + (+ is <300%) |  | 
Cc1cccc(C)c1-c1cc2nc(n1)NS(=O)(=O)c1cccc(c1)C(=O)N1CCC(CCCO2)C1 (stereo not shown) [Compound 355] |  |  | ++ (++ is 30-60%) | 3 to 30
Cc1cccc(C)c1-c1cc2nc(n1)NS(=O)(=O)c1cccc(c1)C(=O)N1CC(CCCO2)CC1(C)C (stereo not shown) [Compound 356] |  |  | ++ (++ is 30-60%) | 3 to 30
Cc1cccc(C)c1-c1cc2nc(n1)NS(=O)(=O)c1cccc(c1)C(=O)N1CCCN(CCCC3(C(F)(F)F)CC3)CC(C1)O2 (stereo not shown) [Compound 357] |  |  | ++ (++ is 30-60%) | < 1
Cc1cccc(C)c1-c1cc2nc(n1)NS(=O)(=O)c1cccc(c1)C(=O)N1CCCN(CCC3(C(F)(F)F)CC3)CC(C1)O2 (stereo not shown) [Compound 358] |  |  | ++ (++ is 30-60%) | < 1
Cc1cccc(C)c1-c1cc2nc(n1)NS(=O)(=O)c1cccc(c1)C(=O)N1CCCN(C(=O)OC(C)(C)C)CC(C1)O2 (stereo not shown) [Compound 359] |  |  | ++ (++ is 30-60%) | 1 to 3
Cc1cccc(C)c1-c1cc2nc(n1)NS(=O)(=O)c1cncc(c1)C(=O)N1Cc3ccccc3[C@@H](C1)O2 [Compound 360] |  | + (+ is <300%) |  | 
Cc1cccc(C)c1-c1cc2nc(n1)NS(=O)(=O)c1cncc(c1)C(=O)N1Cc3ccccc3[C@H](C1)O2 [Compound 361] |  | + (+ is <300%) |  | 
Cc1cccc(C)c1-c1cc2nc(n1)NS(=O)(=O)c1cccc(c1)C(=O)N1CC(CC(C)(C)C1)O2 (stereo not shown) [Compound 362] |  |  | ++ (++ is 30-60%) | < 1
Cc1cccc(C)c1-c1cc2nc(n1)NS(=O)(=O)c1cccc(c1)C(=O)N1C[C@H]3C[C@@H]1[C@@H](C3)O2 [Compound 363] | 3 to 30 | +++ (+++ is >60%) |  | 
Cc1cccc(C)c1-c1cc2nc(n1)NS(=O)(=O)c1cccc(c1)C(=O)N1C[C@H]3C[C@@H]1[C@@H](C3)O2 [Compound 364] |  | ++ (++ is 30-60%) |  | 
Cc1cccc(C)c1-c1cc2nc(n1)NS(=O)(=O)c1cccc(c1)C(=O)N1CC3CC(O2)C1C3 (stereo not shown) [Compound 365] | 3 to 30 | ++ (++ is 30-60%) |  | 
Cc1cccc(C)c1-c1cc2nc(n1)NS(=O)(=O)c1cccc(c1)C(=O)N1CCOC[C@@H]1CO2 [Compound 366] | 3 to 30 | ++ (++ is 30-60%) |  | 
Cc1cccc(C)c1-c1cc2nc(n1)NS(=O)(=O)c1cccc(c1)C(=O)N1CCC[C@@H]1CO2 [Compound 367] | 3 to 30 | +++ (+++ is >60%) |  | 
Cc1cccc(C)c1-c1cc2nc(n1)NS(=O)(=O)c1cccc(c1)C(=O)N1CC(C)(C)CC1CO2 (stereo not shown) [Compound 368] | 1 to 3 | ++ (++ is 30-60%) |  | 
Cc1cccc(C)c1-c1cc2nc(n1)NS(=O)(=O)c1cccc(c1)C(=O)N1CCCCC(C1)O2 (stereo not shown) [Compound 369] |  | + (+ is <300%) |  | 
Cc1cccc(C)c1-c1cc2nc(n1)NS(=O)(=O)c1cccc(c1)C(=O)N1CCC3(CC3)C(C1)O2 (stereo not shown) [Compound 370] | < 1 | +++ (+++ is >60%) |  | 
